Reference: patent publication US20250188088A1, “COMPOUND AND USE THEREOF” (ONQUALITY PHARMACEUTICALS CHINA LTD., priority 2022, published 2025)
Converted amounts (≈) assume the structure as drawn. Read-outs that look alike come from different tables or passages of the source.

Key:
[1] = Log D measurement (n-octanol/PBS shake, LC-MS/MS); type: physicochemical; conditions: pH 7.4, read-out: LogD7.4 (Oct/buff)
Protocol: Two replicates of test compounds (DMSO stock solution 10 mM, 2 μL/well) and QCs (DMSO 10 mM, 2 μL/well) were transferred from the storage tube to a 96-well cluster tube. Add buffer-saturated n-octanol ([…]) and n-octanol-saturated PBS (149 μL/well) to each well; vortex mix the cluster tube for 1 minute, mix by shaking on a plate shaker at 880 rpm for one hour, and then centrifuge at 4000 rpm for 10 minutes. Remove the cover pad, accurately measure a certain amount of n-octanol layer samples (4 μL/well) into a 96-well plate containing n-octanol internal standard diluent (796 μL/well); accurately measure a certain amount of buffer salt layer samples (30 μL/well) into a 96-well plate containing buffer internal standard diluent (570 μL/well); the dilution factor of the sample can be adjusted according to different properties of the sample. Samples were analyzed using a triple quadrupole mass spectrometer. The processed sample solution was analyzed by the fast isocratic elution and small column retention method, the concentration correction was carried out by dilution factor and internal standard, and the ratio of the corrected peak area was used to calculate the final result (Log D/Log P value).

[2] = Thermodynamic solubility assay (PBS pH 6.5; isopropyl myristate); type: physicochemical; conditions: thermodynamic from solid
Protocol: Thermodynamic Solubility Assay
Weigh not less than 2 mg of the sample powder into a Whatman Mini-UniPrep vial. If it is required to test the thermodynamic solubility of samples in multiple buffers, a separate vial is needed for each test; add 450 μL of buffer to each Whatman Mini-UniPrep vial, respectively; after that, install the piston cap of Whatman Mini-UniPrep and press it above the liquid level, so that the filter is in contact with the buffer during shaking; shake the solubility sample by vortexing for 1 minute.
Inject 3 UV standard solutions from low to high concentrations into the HPLC, then inject the diluent and supernatant of the test compound, with two replicates of test sample; and integrate the UV peaks. Simulate a standard curve and calculate the thermodynamic solubility of the sample.

[3] = system: rash caused by small molecule EGFR inhibitors; assay: Prevention of rash caused by small molecule EGFR inhibitors, topical ointment, rat model; type: in vivo, SD rats
Source text: An Experiment to Verify the Prevention of Rash Caused by Small Molecule EGFR Inhibitors with Topical Administration of Compounds of the Present Application on a Rat Animal Model A rat animal model was established. After daily gavage of a small molecule EGFR inhibitor to female SD rats for […], the rats developed extensive rashes on their backs several days later (picture shown in FIG. 1). […] Similar to humans, rats developed skin rashes on their faces and bodies after oral administration of small molecule EGFR inhibitors. Both of them had the same etiology and very similar symptoms. Therefore, rats are a proper animal model for mimicking EGFR inhibitor-induced rash. After the SD rats were fed and adapted for one week (about 200 g), the rats were divided into 10 rats per group. The hair on the back of rats was gently removed with an electric razor one day before the experiment, and then an intragastric administration test was carried out. EGFR inhibitors were dissolved in a sterile aqueous solution, and diluted with PBS buffer; the amount of each gavage was not more than 2 mL, and the dosage was shown in Table 1. The experiment comprised the administration group and the control group. After intragastric administration, apply the ointment (type and concentration are shown in Table 1) of the compound used in the present application to the backs (about 3 cm*3 cm) of rats in the administration group; apply blank matrix ointment (about 0.5 g) to the backs (about 3 cm*3 cm) of rats in the control group; fix the rats with a fixed cylinder for about 4 hours after drug application, release the rats after 4 hours, wipe off the residual drug at the application site with clean water, and put them back into the cage. The frequency of intragastric administration of EGFR inhibitors is shown in Table 1, but the compounds of the present application and blank matrix ointment are applied only once a day. The intragastric administration and application test were repeated daily until an obvious rash appeared in the control group. […] Table 1 lists the animal experiment combination of various small molecule EGFR inhibitors and the compound ointment of the present application, as well as the corresponding experiment results (wherein, the value in the control rate column=the number of rats whose rash is milder in the administration group than that in the control group/the total number of rats in the administration group×100%).

[4] = system: rash caused by monoclonal EGFR inhibitors; assay: Prevention of rash caused by monoclonal EGFR inhibitors, topical ointment, rat model; type: in vivo, SD rats
Method in brief: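 SD rats (~200 g), backs shaved, 10 per group, given EGFR monoclonal antibody i.v. (tail vein) twice weekly, with compound ointment or blank matrix ointment applied daily to a ~3×3 cm dorsal area, held 4 h then wiped off, until control rash appeared. Control rate = % of treated rats with milder rash than controls.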

[5] = aqueous buffer, PBS buffer pH 6.5, about 25° C., read-out: Thermodynamic Solubility pH = 6.5
[6] = oil or lipid, isopropyl myristate as vehicle, about 25° C., read-out: Thermodynamic Solubility in Isopropyl Myristate

Row | Structure (SMILES) | logD [1] | solubility thermodynamic at 24 h [2, 5] [µg/mL] | solubility thermodynamic at 24 h [2, 6] [µg/mL] | also measured
1 | C[C@@H]1CCN(C(=O)CC#N)C[C@@H]1N(C)c1ncnc2c1ccn2C(=O)N(C)CCOC(=O)C1CCC(F)(F)CC1 [Compound A2] | 1.86 | 240 (≈ 429 µM) | 1020 (≈ 1820 µM) | 
2 | C[C@@H]1CCN(C(=O)CC#N)C[C@@H]1N(C)c1ncnc2c1ccn2C(=O)N(C)CCOC(=O)C1(C)CCC1 [Compound A3] | 2.1 | 304 (≈ 597 µM) | 2340 (≈ 4580 µM) | 
3 | C[C@@H]1CCN(C(=O)CC#N)C[C@@H]1N(C)c1ncnc2c1ccn2C(=O)N(C)CCOC(=O)C1CCC1 [Compound A4] | 2.35 | 486 (≈ 981 µM) | 1250 (≈ 2520 µM) | 
4 | C[C@@H]1CCN(C(=O)CC#N)C[C@@H]1N(C)c1ncnc2c1ccn2C(=O)N(C)CCOC(=O)CC1CCC1 [Compound A5] | 2.05 | 147 (≈ 289 µM) | 1200 (≈ 2350 µM) | 
5 | C[C@@H]1CCN(C(=O)CC#N)C[C@@H]1N(C)c1ncnc2c1ccn2C(=O)N(C)CCOC(=O)C1CCCC1 [Compound A6] | 1.95 | 300 (≈ 589 µM) | 1530 (≈ 2990 µM) | 
6 | C[C@@H]1CCN(C(=O)CC#N)C[C@@H]1N(C)c1ncnc2c1ccn2C(=O)N(C)CCOC(=O)C1CCOC1 (stereo partly drawn) [Compound A8] | 0.56 | 2940 (≈ 5750 µM) | 208 (≈ 407 µM) | 
7 | CCCCCC(=O)OCCN(C)C(=O)n1ccc2c(N(C)[C@H]3CN(C(=O)CC#N)CC[C@H]3C)ncnc21 [Compound A9] | 1.69 | 234 (≈ 457 µM) | 1380 (≈ 2690 µM) | 

More lines, main results first:

Row | logD [1] | solubility thermodynamic at 24 h [2, 5] [µg/mL] | solubility thermodynamic at 24 h [2, 6] [µg/mL] | Structure (SMILES) | also measured
8 | 1.45 | 645 (≈ 1210 µM) | 878 (≈ 1650 µM) | C[C@@H]1CCN(C(=O)CC#N)C[C@@H]1N(C)c1ncnc2c1ccn2C(=O)N(C)CCOC(=O)C1CC(F)(F)C1 [Compound A1] | 
9 | 2.07 | 233 (≈ 456 µM) | 1830 (≈ 3580 µM) | CCC(CC)C(=O)OCCN(C)C(=O)n1ccc2c(N(C)[C@H]3CN(C(=O)CC#N)CC[C@H]3C)ncnc21 [Compound A10] | 
10 | 1.87 | 170 (≈ 341 µM) | 1590 (≈ 3200 µM) | CCC(C)C(=O)OCCN(C)C(=O)n1ccc2c(N(C)[C@H]3CN(C(=O)CC#N)CC[C@H]3C)ncnc21 (stereo partly drawn) [Compound A11] | 
11 | 2.72 | 16 (≈ 30.4 µM) | 339 (≈ 646 µM) | CCCC(CC)C(=O)OCCN(C)C(=O)n1ccc2c(N(C)[C@H]3CN(C(=O)CC#N)CC[C@H]3C)ncnc21 (stereo partly drawn) [Compound A12] | Control Rate ([3]; Afatinib 40 mg/kg once a day, ointment 1.0 wt% once a day, 14 days): 60%; Control Rate ([3]; Afatinib 40 mg/kg once a day, ointment 3.0 wt% once a day, 14 days): 75%; Control Rate ([3]; Afatinib 40 mg/kg once a day, ointment 5.0 wt% once a day, 14 days): 90%; Control Rate ([3]; EAI045 80 mg/kg once a day, ointment 1.0 wt% once a day, 11 days): 60%; Control Rate ([3]; EAI045 80 mg/kg once a day, ointment 10.0 wt% once a day, 11 days): 70%; Control Rate ([3]; Erlotinib 70 mg/kg once a day, ointment 0.3 wt% once a day, 14 days): 20%; Control Rate ([3]; Erlotinib 70 mg/kg once a day, ointment 3.0 wt% once a day, 14 days): 50%; Control Rate ([3]; Osimertinib 60 mg/kg twice a day, ointment 0.3 wt% once a day, 10 days): 50%; Control Rate ([3]; Osimertinib 60 mg/kg twice a day, ointment 5.0 wt% once a day, 10 days): 80%; Control Rate ([4]; Cetuximab 100 mg/kg twice a week via tail vein, ointment 0.3 wt% once a day, 10 days): 20%; Control Rate ([4]; Cetuximab 100 mg/kg twice a week via tail vein, ointment 3.0 wt% once a day, 10 days): 70%; Control Rate ([4]; Cetuximab 100 mg/kg twice a week via tail vein, ointment 10.0 wt% once a day, 10 days): 85%; Control Rate ([4]; Panitumumab 10 mg/kg twice a week via tail vein, ointment 1.0 wt% once a day, 14 days): 50%; Control Rate ([4]; Panitumumab 10 mg/kg twice a week via tail vein, ointment 5.0 wt% once a day, 14 days): 60%; Control Rate ([4]; Panitumumab 10 mg/kg twice a week via tail vein, ointment 10.0 wt% once a day, 14 days): 60%
12 | 0.97 | 2430 (≈ 5180 µM) | 779 (≈ 1660 µM) | CCC(=O)OCCN(C)C(=O)n1ccc2c(N(C)[C@H]3CN(C(=O)CC#N)CC[C@H]3C)ncnc21 [Compound A20] | 
